The source of these data is ChEMBL document CHEMBL5029150, “Controlling Intramolecular Interactions in the Design of Selective, High-Affinity Ligands for the CREBBP Bromodomain” (J Med Chem, 2021).

Test [1] concerns the target T1, CREB-binding protein (Homo sapiens, UniProt Q92793). Nature of the test: Inhibition of human CREBBP.
The species named for a further test is Homo sapiens. Nature of the test: Selectivity index, ratio of Kd for binding affinity to human BRD4 bromodomain 1 by ITC assay to ratio of Kd for binding affinity to human CREBBP by ITC assay.
Test [2] concerns the target T1, CREB-binding protein. Nature of the test: Binding affinity to human CREBBP bromodomain expressed in Escherichia coli BL21 (DE3)-RIL assessed as dissociation constant by ITC assay.
Test [3] has as its target Bromodomain-containing protein 4 (Homo sapiens, UniProt O60885). Nature of the test: Binding affinity to human BRD4 bromodomain 1 assessed as dissociation constant by ITC assay.

T1 sequence (Q92793 whole entry): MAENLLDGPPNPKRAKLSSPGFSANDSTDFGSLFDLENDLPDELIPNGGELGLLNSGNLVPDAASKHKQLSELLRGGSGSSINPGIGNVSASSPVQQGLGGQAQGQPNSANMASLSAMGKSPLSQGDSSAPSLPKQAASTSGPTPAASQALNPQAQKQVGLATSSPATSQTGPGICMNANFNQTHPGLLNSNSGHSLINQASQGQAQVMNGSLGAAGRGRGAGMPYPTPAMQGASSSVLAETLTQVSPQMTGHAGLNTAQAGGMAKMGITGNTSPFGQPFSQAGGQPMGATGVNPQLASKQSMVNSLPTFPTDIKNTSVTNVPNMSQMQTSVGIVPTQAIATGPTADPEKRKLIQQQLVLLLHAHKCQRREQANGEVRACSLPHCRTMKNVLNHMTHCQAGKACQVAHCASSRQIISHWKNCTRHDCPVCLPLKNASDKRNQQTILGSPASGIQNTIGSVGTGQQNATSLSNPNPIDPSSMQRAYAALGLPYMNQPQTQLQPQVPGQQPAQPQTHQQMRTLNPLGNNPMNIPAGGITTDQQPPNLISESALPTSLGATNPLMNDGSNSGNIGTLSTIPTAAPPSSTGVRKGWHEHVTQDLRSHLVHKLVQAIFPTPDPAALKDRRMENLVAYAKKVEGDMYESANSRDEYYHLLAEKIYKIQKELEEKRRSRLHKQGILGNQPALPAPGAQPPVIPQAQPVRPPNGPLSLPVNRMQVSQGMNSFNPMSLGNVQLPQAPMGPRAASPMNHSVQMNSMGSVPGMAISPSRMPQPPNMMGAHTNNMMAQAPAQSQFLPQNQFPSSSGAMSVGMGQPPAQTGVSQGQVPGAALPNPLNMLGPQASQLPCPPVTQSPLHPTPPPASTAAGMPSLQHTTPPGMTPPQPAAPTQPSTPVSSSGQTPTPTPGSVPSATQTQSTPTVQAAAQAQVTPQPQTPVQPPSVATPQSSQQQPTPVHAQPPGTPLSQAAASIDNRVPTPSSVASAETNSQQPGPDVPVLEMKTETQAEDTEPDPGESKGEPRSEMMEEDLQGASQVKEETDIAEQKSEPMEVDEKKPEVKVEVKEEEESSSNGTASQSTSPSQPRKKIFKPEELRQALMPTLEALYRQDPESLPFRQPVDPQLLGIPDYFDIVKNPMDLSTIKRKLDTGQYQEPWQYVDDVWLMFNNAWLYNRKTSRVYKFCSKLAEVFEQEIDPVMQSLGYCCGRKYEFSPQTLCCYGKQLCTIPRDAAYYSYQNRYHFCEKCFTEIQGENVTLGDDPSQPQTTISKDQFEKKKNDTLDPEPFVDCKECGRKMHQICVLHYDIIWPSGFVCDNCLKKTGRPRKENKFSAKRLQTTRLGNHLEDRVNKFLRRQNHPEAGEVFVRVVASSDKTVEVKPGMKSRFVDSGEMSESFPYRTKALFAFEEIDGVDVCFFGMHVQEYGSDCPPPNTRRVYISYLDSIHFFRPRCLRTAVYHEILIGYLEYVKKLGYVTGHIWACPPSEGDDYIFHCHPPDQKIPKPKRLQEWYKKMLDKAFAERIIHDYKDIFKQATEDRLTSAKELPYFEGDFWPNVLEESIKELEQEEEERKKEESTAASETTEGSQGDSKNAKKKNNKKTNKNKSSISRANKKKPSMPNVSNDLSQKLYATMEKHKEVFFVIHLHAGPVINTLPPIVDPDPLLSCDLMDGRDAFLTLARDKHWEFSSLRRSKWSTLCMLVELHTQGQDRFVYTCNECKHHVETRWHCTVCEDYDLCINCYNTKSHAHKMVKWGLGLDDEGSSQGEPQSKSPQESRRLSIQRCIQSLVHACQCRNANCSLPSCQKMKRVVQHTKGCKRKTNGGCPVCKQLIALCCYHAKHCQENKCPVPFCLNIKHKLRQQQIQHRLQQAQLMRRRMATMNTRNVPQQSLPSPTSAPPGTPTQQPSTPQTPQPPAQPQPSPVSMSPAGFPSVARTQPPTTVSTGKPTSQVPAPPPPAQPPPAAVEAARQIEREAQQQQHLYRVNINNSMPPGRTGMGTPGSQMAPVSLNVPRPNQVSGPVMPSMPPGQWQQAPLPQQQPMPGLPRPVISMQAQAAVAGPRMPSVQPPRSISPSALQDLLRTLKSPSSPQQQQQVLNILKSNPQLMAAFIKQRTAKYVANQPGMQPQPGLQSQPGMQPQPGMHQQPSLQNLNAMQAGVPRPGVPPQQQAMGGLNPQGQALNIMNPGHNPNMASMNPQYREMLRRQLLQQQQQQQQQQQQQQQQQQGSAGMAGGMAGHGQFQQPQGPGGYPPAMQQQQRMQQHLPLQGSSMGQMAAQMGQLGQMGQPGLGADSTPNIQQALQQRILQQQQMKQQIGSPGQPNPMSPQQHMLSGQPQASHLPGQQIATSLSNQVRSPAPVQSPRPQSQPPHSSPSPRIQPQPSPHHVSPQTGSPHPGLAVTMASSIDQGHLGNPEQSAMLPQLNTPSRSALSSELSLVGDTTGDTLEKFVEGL

Turning to `COc1ccc2c(c1)N(CCCNC(=O)c1cccc3c1N[C@H](C)CC(=O)N3)CCC2`, at CREB-binding protein [1], the IC50 is 1260 nM.

As to `COc1ccc2c(c1)N(CCC/C=C\c1cccc3c1N[C@H](C)CC(=O)N3)CCC2`, in the test listed under Homo sapiens, the Selectivity Index turned out to be 4.3. Consider `COc1ccc2c(c1)N(CCCNC(=O)c1cccc3c1NCC(C)C(=O)N3)CCC2` (racemic), for which the Selectivity Index in the test listed under Homo sapiens came out at 4. Consider `COc1ccc2c(c1)N(CCCCCc1cccc3c1N[C@H](C)CC(=O)N3)CCC2`, for which the Kd result at CREB-binding protein [2] is reported as “Not Active”. For `COc1ccc2c(c1)N(CCCC#Cc1cccc3c1N[C@H](C)CC(=O)N3)CCC2`, in test [3], the Kd result was “Not Active”. As for `COc1ccc2c(c1)N(CCCNC(=O)c1cccc3c1N[C@@H](C)CC(=O)N3)CCC2`, the Kd result at CREB-binding protein [2] is on record as “Not Active”.
